# Data as given in publication PMC6027464, “Separation, Identification, and Antidiabetic Activity of Catechin Isolated from Arbutus unedo L. Plant Roots” (Plants, 2018).
# Target: α-glucosidase
# Experiment: p-NPG hydrolysis assay with commercial enzyme (Sigma-Aldrich), absorbance at […] nm
# Assay type: biochemical
smiles,measurement,value
Oc1cc(O)c2c(c1)O[C@H](c1ccc(O)c(O)c1)[C@@H](O)C2 [Catechin],"α-Glucosidase Inhibitory Activity IC50 (μg/mL), ±SD",87.55 ± 2.23 µg/mL
